Laboratory results from US20230000813A1, “COMPOUND FOR THE TREATMENT OF BOVINE OR SWINE RESPIRATORY DISEASE” (Intervet Inc., priority 2016, published 2023).
In brackets after ≈: the same amount, converted by molar mass.

Experiments:
Assay in all cases: MIC, broth-microdilution (CLSI VET01-A4)
Assay type in all cases: cell-based
[1] = test system: Mannheimia haemolytica MH 13065 (XB0446-6003.9, BRD field isolate)
Summary of the method: (§1)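 MIC read by eye as lowest compound concentration without visible growth (no turbidity), interpreted per CLSI VET01-S3. Doubling-dilution broth-microdilution trays, run according to CLSI VET01-A4.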

[2] = test system: Mannheimia haemolytica MH 13093 (XB0472-6014.1, BRD field isolate)
Summary of the method: as §1

[3] = test system: Pasteurella multocida PM 6267 (P 2225 (L386), reference strain, mouse infection strain); conditions: Pasteurella multocida PM 6267
Summary of the method: (§2)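 Broth microdilution per CLSI VET01-A4 using doubling dilution series of test compound; results interpreted per CLSI VET01-S3. MIC recorded as lowest concentration giving no turbidity visible to the unaided eye.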

[4] = test system: Mannheimia haemolytica MH 6374 (ATCC 33396, reference strain); conditions: Mannheimia haemolytica MH 6374; read-out: MIC MH 6374
Summary of the method: as §2

[5] = test system: Pasteurella multocida PM 6391 (ATCC 43137, reference strain); conditions: Pasteurella multocida PM 6391; for MIC: read-out: MIC PM 6391
Summary of the method: as §2

[6] = test system: Mannheimia haemolytica MH 6357 (M7/2, reference strain, cattle infection strain); conditions: Mannheimia haemolytica MH 6357; read-out: MIC MH 6357
Summary of the method: as §2

[7] = test system: Pasteurella multocida PM 10775 (080130003051, BRD field isolate); conditions: Pasteurella multocida PM 10775
Summary of the method: as §2

[8] = test system: Mannheimia haemolytica MH 10720 (154, BRD field isolate); conditions: Mannheimia haemolytica MH 10720; for MIC: read-out: MIC MH 10720
Summary of the method: as §2

[9] = test system: Pasteurella multocida PM 12080 (IV102277-0093, BRD field isolate); conditions: Pasteurella multocida PM 12080; for MIC: read-out: MIC PM 12080
Summary of the method: as §2

[10] = test system: Mannheimia haemolytica MH 12587 (1071, BRD field isolate, macrolide-resistance: erm+, E+); conditions: Mannheimia haemolytica MH 12587, macrolide-resistant
Summary of the method: as §2

SMILES | MIC [1] [µM] | MIC [2] [µM] | MIC PM 6267 [3] | MIC [4] [µM] | MIC [5] [µM] | MIC [6] [µM] | MIC PM 10775 [7] | MIC MH 10720 [8] | MIC [9] [µM] | MIC MH 12587 [10] [µM] | MIC PM 12080 [9] | MIC PM 6391 [5] | MIC [8] [µM]
CC(C)(N)C(NC(=O)c1ccc(C#Cc2ccc(CN3CC=CC3)s2)cc1)C(=O)NO (racemic) [Compound 649] | 0.4 (≈ 0.175 µg/mL) | 0.8 (≈ 0.351 µg/mL) | <=0.1 μM | 0.4 (≈ 0.175 µg/mL) | 0.2 (≈ 0.0877 µg/mL) | 0.8 (≈ 0.351 µg/mL) | <=0.1 μM | <=0.1 μM | 0.2 (≈ 0.0877 µg/mL) | 0.8 (≈ 0.351 µg/mL) |  |  | 
CC(C)(C(NC(=O)c1ccc(C#Cc2ccc(CNCc3ccccc3)cc2)cc1)C(=O)NO)[N+](=O)[O-] (racemic) [Compound 652] | 0.4 (≈ 0.2 µg/mL) | 0.8 (≈ 0.4 µg/mL) | <=0.1 μM | 0.8 (≈ 0.4 µg/mL) | 0.4 (≈ 0.2 µg/mL) | 0.8 (≈ 0.4 µg/mL) | <=0.1 μM | <=0.1 μM |  | 0.8 (≈ 0.4 µg/mL) | <=0.1 μM |  | 
CC(C)(C(NC(=O)c1ccc(C#Cc2ccc(CNCc3ccncc3)cc2)cc1)C(=O)NO)[N+](=O)[O-] (racemic) [Compound 654] | 0.4 (≈ 0.201 µg/mL) | 0.4 (≈ 0.201 µg/mL) | <=0.1 μM | 0.4 (≈ 0.201 µg/mL) |  | 0.4 (≈ 0.201 µg/mL) | <=0.1 μM | <=0.1 μM |  | 0.8 (≈ 0.401 µg/mL) | <=0.1 μM | <=0.1 μM | 
C[C@@H](O)[C@H](NC(=O)c1ccc(C#Cc2ccc(CNC3CC3)cc2)cc1)C(=O)NO [C. 103] | 0.4 (≈ 0.163 µg/mL) | 1.6 (≈ 0.652 µg/mL) | <=0.1 μM | 0.195 (≈ 0.0795 µg/mL) | 0.195 (≈ 0.0795 µg/mL) | 0.391 (≈ 0.159 µg/mL) | <=0.1 μM |  |  | 0.8 (≈ 0.326 µg/mL) | <=0.1 μM |  | 0.2 (≈ 0.0815 µg/mL)
C[C@@H](O)[C@H](NC(=O)c1ccc(C#Cc2ccc(CN3CCOCC3)s2)cc1)C(=O)NO [C. 192] | 0.8 (≈ 0.355 µg/mL) | 0.8 (≈ 0.355 µg/mL) | <=0.1 μM | 0.8 (≈ 0.355 µg/mL) | 0.2 (≈ 0.0887 µg/mL) | 0.8 (≈ 0.355 µg/mL) | <=0.1 μM |  |  | 1.6 (≈ 0.71 µg/mL) | <=0.1 μM |  | 0.2 (≈ 0.0887 µg/mL)
C[C@@H](O)[C@H](NC(=O)c1ccc(C#Cc2ccc(N)cc2)cc1)C(=O)NO [C. 245, 4-[2-(4-aminophenyl)ethynyI]-N-[(1S,2R)-2-hydroxy-1-(hydroxycarbamoyl)propyl]benzamide] | 0.4 (≈ 0.141 µg/mL) | 0.4 (≈ 0.141 µg/mL) | <=0.1 μM | 0.4 (≈ 0.141 µg/mL) | 0.2 (≈ 0.0707 µg/mL) | 0.2 (≈ 0.0707 µg/mL) | <=0.1 μM | <=0.1 μM |  | 0.8 (≈ 0.283 µg/mL) | <=0.1 μM |  | 
C[C@@H](O)[C@H](NC(=O)c1ccc(C#Cc2ccc(CNCc3ccccn3)cc2)cc1)C(=O)NO [C. 258] | 0.8 (≈ 0.367 µg/mL) | 0.8 (≈ 0.367 µg/mL) | <=0.1 μM | 0.8 (≈ 0.367 µg/mL) | 0.2 (≈ 0.0917 µg/mL) | 0.4 (≈ 0.183 µg/mL) | <=0.1 μM |  |  | 1.6 (≈ 0.734 µg/mL) | <=0.1 μM |  | 0.2 (≈ 0.0917 µg/mL)
C[C@@H](O)[C@H](NC(=O)c1ccc(C#Cc2ccc(CNCc3ccco3)cc2)cc1)C(=O)NO [C. 259] | 0.4 (≈ 0.179 µg/mL) | 0.4 (≈ 0.179 µg/mL) | <=0.1 μM | 0.2 (≈ 0.0895 µg/mL) |  | 0.2 (≈ 0.0895 µg/mL) | <=0.1 μM | <=0.1 μM |  | 0.4 (≈ 0.179 µg/mL) | <=0.1 μM | <=0.1 μM | 
C[C@@H](O)[C@H](NC(=O)c1ccc(C#Cc2ccc(CNCC#N)cc2)cc1)C(=O)NO [C. 360] | 0.4 (≈ 0.163 µg/mL) | 0.8 (≈ 0.325 µg/mL) | <=0.1 μM | 0.4 (≈ 0.163 µg/mL) |  | 0.4 (≈ 0.163 µg/mL) | <=0.1 μM |  |  | 0.8 (≈ 0.325 µg/mL) | <=0.1 μM | <=0.1 μM | 0.2 (≈ 0.0813 µg/mL)
C=CCNCc1ccc(C#Cc2ccc(C(=O)NC(C(=O)NO)C(C)(C)SC)cc2)cc1 (stereo not drawn) [C. 582] | 0.8 (≈ 0.361 µg/mL) | 0.8 (≈ 0.361 µg/mL) | <=0.1 μM | 0.8 (≈ 0.361 µg/mL) | 0.4 (≈ 0.181 µg/mL) | 0.8 (≈ 0.361 µg/mL) | <=0.1 μM | <=0.1 μM | 0.4 (≈ 0.181 µg/mL) | 1.6 (≈ 0.723 µg/mL) |  |  | 
C=CCNCc1ccc(C#Cc2ccc(C(=O)NC(C(=O)NO)C(C)(C)S(C)(=O)=O)cc2)cc1 (stereo not drawn) [C. 602] | 0.8 (≈ 0.387 µg/mL) | 0.8 (≈ 0.387 µg/mL) | <=0.1 μM | 0.8 (≈ 0.387 µg/mL) |  | 1.6 (≈ 0.774 µg/mL) | <=0.1 μM | <=0.1 μM |  | 1.6 (≈ 0.774 µg/mL) | <=0.1 μM | <=0.1 μM | 
CC(C)(C(NC(=O)c1ccc(C#Cc2ccc(CNCc3ccncc3)cc2)cc1)C(=O)NO)S(C)(=O)=O (stereo not drawn) [C. 607] | 0.4 (≈ 0.214 µg/mL) | 0.4 (≈ 0.214 µg/mL) | <=0.1 μM | 0.4 (≈ 0.214 µg/mL) |  | 0.4 (≈ 0.214 µg/mL) | <=0.1 μM | <=0.1 μM |  | 0.8 (≈ 0.428 µg/mL) | <=0.1 μM | <=0.1 μM | 
CC(C)(C(NC(=O)c1ccc(C#Cc2ccc(CNCc3cccnc3)cc2)cc1)C(=O)NO)S(C)(=O)=O (stereo not drawn) [C. 613] | 0.8 (≈ 0.428 µg/mL) | 0.8 (≈ 0.428 µg/mL) | <=0.1 μM | 0.4 (≈ 0.214 µg/mL) |  | 0.8 (≈ 0.428 µg/mL) | <=0.1 μM | <=0.1 μM |  | 1.6 (≈ 0.855 µg/mL) | <=0.1 μM | <=0.1 μM | 
CC(C)(C(NC(=O)c1ccc(C#Cc2ccc(CNCc3ccccn3)cc2)cc1)C(=O)NO)S(C)(=O)=O (stereo not drawn) [C. 615] | 1.6 (≈ 0.855 µg/mL) | 0.8 (≈ 0.428 µg/mL) | <=0.1 μM | 0.4 (≈ 0.214 µg/mL) |  | 1.6 (≈ 0.855 µg/mL) | <=0.1 μM | <=0.1 μM |  | 1.6 (≈ 0.855 µg/mL) | <=0.1 μM | <=0.1 μM | 
CC(C)(C(NC(=O)c1ccc(C#Cc2ccc(CNCc3ccco3)cc2)cc1)C(=O)NO)S(C)(=O)=O (stereo not drawn) [C. 616] | 0.2 (≈ 0.105 µg/mL) | 0.4 (≈ 0.209 µg/mL) | <=0.1 μM | 0.2 (≈ 0.105 µg/mL) |  | 0.8 (≈ 0.419 µg/mL) | <=0.1 μM | <=0.1 μM |  | 0.8 (≈ 0.419 µg/mL) | <=0.1 μM | <=0.1 μM | 
